“Also recorded” adds a separate entry of the source. Where two headings read alike, the source gives them in different places.
Key:
[1] = man
CFU-E and CFU-GM = settings: doses manifold higher than highly toxic doses of FUrd
[2] = oral administration, rhesus monkeys
SCLC xenograft = settings: mice, dose-dependent, maximum inhibition
[3] = tested on: primary human keratinocytes
actinic keratosis = assay: oral Fosfluridine Tidoxil in patients with advanced actinic keratosis; format: in vivo, human
Experimental: A person was suffering from an advanced actinic keratosis since more than 3 years. In this time they received different types of topical treatment, such as Solaraze (3% Diclofenac) or Aldara (Imiquimod). Thereafter they were treated with 50 mg of Fosfluridine Tidoxil (1 capsule). The patient received 3 cycles each cycle consisting of a once daily oral administration over 7 days followed by a treatment free week (two weeks per cycle).
A patient was diagnosed to have an actinic keratosis 15 years before and was now in an advanced stage. In the years before taking Fosfluridine Tidoxil they were, in essence, treated with Solaraze. Since the therapeutic benefit appears to be limited they then received 100 mg of oral Fosfluridine Tidoxil (2 capsules of 50 mg) over 3 cycles (as mentioned above).
A person with a first diagnosis of Actinic keratosis 1.6 years before use of Fosfluridine Tidoxil was treated topically, however, eventually without therapeutic benefit. […] They then received 100 mg of oral Fosfluridine Tidoxil (2 capsules of 50 mg) over 3 cycles (as described above). […] This patient was not treated over the next four months with any topical.
A patient suffered from Actinic keratosis for more than 7 years and was now in an advanced stage. […] […], then, received 100 mg of oral Fosfluridine Tidoxil (2 capsules of 50 mg) over 3 cycles (as de-scribed above). […] In the next 2 month this patient was not treated with any topical.

[4] = mice, up to highest single p.o. dose tested of 3.8 g/kg
[5] = in vivo
Description: One of the drawbacks of using intravenously administered 5-Fluorouracil is bone marrow suppression, expressed clinically by increased susceptibility to infections and fatigue.

[6] = oral administration, mice
bone marrow cells = assay: bone marrow toxicity after intravenous doses; format: in vivo; settings: single and repeated intravenous doses
[7] = after intravenous administration; cited from earlier work

Compound | plasma concentrations of 5-FU and 5-FUrd after administration of FT [1] | plasma half-life ([1]; oral administration) [h] | suppression of in vitro colony formation of CFU-E and CFU-GM (CFU-E and CFU-GM) | plasma half-life [2] [h] | inhibition of SCLC xenograft tumor growth (SCLC xenograft) | effectiveness in proliferating compared to non-proliferating keratinocytes [3] | reduction of lesion count (actinic keratosis; 50 mg oral once daily, 3 cycles (7 days on, 7 days off), plus one month of observation) [%] | histological stage of lesions (actinic keratosis; 50 mg oral once daily, 3 cycles, plus one month of observation, most severe area) | histological stage of lesions (actinic keratosis; 100 mg oral once daily, 3 cycles, plus one month of observation, listed as Fosfluridine Tidoxil) | outcome in follow-up without any topical treatment (actinic keratosis; after 100 mg oral, 3 cycles, next 2-4 months without topical, listed as Fosfluridine Tidoxil) | mortality in acute tolerability study [4] | distribution to the bone marrow [5] | plasma half-life [6] [h] | bone marrow toxicity (bone marrow cells) | drug eliminated within the first hour [7]
CCCCCCCCCCCCSCC(COP(=O)([O-])OCC1OC(n2cc(F)c(=O)[nH]c2=O)C(O)C1O)OCCCCCCCCCC.[Na+] (stereo not shown) [FT, (5-fluorouridine)-5′-phosphoric acid (3-dodecylmercapto-2-decyloxy)propylester, Na-salt] | negligible | > 20 | did not suppress | 8 to 10 | up to 82% | far more effective in proliferating primary human keratinocytes | 34 | reduced from stage 3 to stage 1 | decreased from class 2 to class 1; also recorded: reduced from class 3 to class 2; also recorded: reduced from 3 to 1 | all actinic keratoses have disappeared; also recorded: all actinic lesions have disappeared | no animal died | not distributed to the bone marrow | 4 to 5 | did not result in bone marrow toxicity | –
O=c1[nH]c(=O)n([C@@H]2O[C@H](CO)[C@@H](O)[C@H]2O)cc1F [Example 5-FUrd, 5-Fluorouridine, reference compound] | – | – | – | – | – | – | – | – | – | – | – | – | – | dose-dependently suppressed bone marrow cells | –
O=c1[nH]cc(F)c(=O)[nH]1 [Example 5-FU, 5-Fluorouracil] | – | – | – | – | – | – | – | – | – | – | – | – | – | – | Over 90%
